SMILES strings stand for the structures.

Experiment [1] has as its target GST-tagged KRAS-G12D (2-169) (Homo sapiens, UniProt P01116, G12D). In words: Nucleotide exchange assay (NEA), SOS-mediated, HTRF, KRAS G12D. Type of experiment: biochemical. Conditions: Table 4; IC50 extracted at 30 min; 20 nM SOScat; read-out: NEA G12D IC50. A digest of the protocol: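 Compound preincubated 1 h at RT with 0.25 nM GST-KRAS-G12D (2-169) and anti-GST Tb donor, then 20 nM SOS1cat (564-1049) and 150 nM GTP-DY-647P1 added; pH 7.3 HEPES buffer with MgCl2 and DTT. HTRF monitored at RT; % inhibition versus DMSO and no-SOS blank, 4-parameter IC50 taken at 30 min.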

In experiment [2] the test system is phospho-ERK in SW620 (KRAS-G12V) cells. Put plainly: pERK In Cell Western (ICW) assay (Method B), SW620. The format is cell-based. Conditions: Homo sapiens, SW-620, 3 h, Table 4. In short, it runs like this:
(§1)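 Cells were seeded at 5,000/well (AGS) or 10,000/well (GP2D, SW620), grown overnight, then treated 3 h at 37 °C with a ½-log 9-point compound dilution. Fixed cells were stained for phospho-ERK with DRAQ5 as DNA counterstain; pERK/DRAQ5 ratio as percent of blank control gave IC50 by 4-parameter fit.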

In experiment [3] the target is GST-tagged KRAS-G12V (2-169) (Homo sapiens, UniProt P01116, G12V). Put plainly: Nucleotide exchange assay (NEA), SOS-mediated, HTRF, KRAS G12V. Type of experiment: biochemical. Conditions: Table 4; IC50 extracted at 90 min; 80 nM SOS. A digest of the protocol: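 GST-KRAS-G12V (2-169), 0.25 nM, pre-incubated 1 h at RT with compound, then SOS1cat (564-1049) 80 nM and GTP-DY-647P1 150 nM added in HEPES pH 7.3 buffer with MgCl2 and DTT. HTRF via anti-GST Tb cryptate read over 90 min; IC50 from 4-parameter fit at 90 min, blanked to no-SOS reactions.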

Experiment [4] deals with phospho-ERK in GP2D (KRAS-G12D) cells. In words: pERK In Cell Western (ICW) assay (Method B), GP2D. The format is cell-based. The following applies: GP2d, 3 h, Table 4. A digest of the protocol:
as §1

Sequence of GST-tagged KRAS-G12V (2-169) (P01116 2-169 isoform P01116-2 G12V): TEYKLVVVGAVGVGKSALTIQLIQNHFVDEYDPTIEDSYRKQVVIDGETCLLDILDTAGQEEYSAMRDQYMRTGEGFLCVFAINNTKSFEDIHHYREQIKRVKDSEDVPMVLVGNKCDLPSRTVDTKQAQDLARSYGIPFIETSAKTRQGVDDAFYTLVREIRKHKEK
Sequence of GST-tagged KRAS-G12D (2-169) (P01116 2-169 isoform P01116-2 G12D): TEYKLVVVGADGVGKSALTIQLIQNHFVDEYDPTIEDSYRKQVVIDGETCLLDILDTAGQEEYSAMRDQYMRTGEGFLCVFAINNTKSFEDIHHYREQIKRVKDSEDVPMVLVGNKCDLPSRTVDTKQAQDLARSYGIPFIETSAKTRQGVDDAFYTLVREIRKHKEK

As for `N#Cc1c(N)sc2c1C1(CC2)CN(c2nc(OC[C@@]34CCCN3C[C@H](F)C4)nc(N3CCCCC3C#N)n2)C1` (stereo partly drawn) [Compound 44, 2-amino-1′-[4-(2-cyano-1-piperidyl)-6-[[(2R,8S)-2-fluoro-1,2,3,5,6,7-hexahydropyrrolizin-8-yl]methoxy]-1,3,5-triazin-2-yl]spiro[5,6-dihydrocyclopenta[b]thiophene-4,3′-azetidine]-3-carbonitrile], the IC50 in experiment [1] was 10 to 100 nM; in experiment [2] it was 1000 to 20000 nM; in experiment [3], 10 to 100 nM; in experiment [4] it was 100 to 1000 nM.
As for `N#Cc1c(N)sc2c1C1(CC2)CN(c2nc(OC[C@@]34CCCN3C[C@H](F)C4)nc(N3CCCC4(C3)NC(=O)NC4=O)n2)C1` (stereo partly drawn) [Compound 45, 2-amino-1′-[4-(2,4-dioxo-1,3,9-triazaspiro[4.5]decan-9-yl)-6-[[(2R,8S)-2-fluoro-1,2,3,5,6,7-hexahydropyrrolizin-8-yl]methoxy]-1,3,5-triazin-2-yl]spiro[5,6-dihydrocyclopenta[b]thiophene-4,3′-azetidine]-3-carbonitrile], the IC50 in experiment [1] was below 10 nM; in experiment [2] it was 1000 to 20000 nM; in experiment [3], below 10 nM; in experiment [4], 100 to 1000 nM.
Turning to `C[C@@]1(O)C[C@@H](O)CN(c2nc(OC[C@@]34CCCN3C[C@H](F)C4)nc(N3CC4(CCc5sc(N)c(C#N)c54)C3)n2)C1` [Compound 47, 2-amino-1′-[4-[(3R,5R)-3,5-dihydroxy-3-methyl-1-piperidyl]-6-[[(2R,8S)-2-fluoro-1,2,3,5,6,7-hexahydropyrrolizin-8-yl]methoxy]-1,3,5-triazin-2-yl]spiro[5,6-dihydrocyclopenta[b]thiophene-4,3′-azetidine]-3-carbonitrile], the IC50 in experiment [1] is below 10 nM; in experiment [2] it was at least 20000 nM; in experiment [3], below 10 nM; in experiment [4], 100 to 1000 nM.
As for `CC1(O)CCCCN(c2nc(OC[C@@]34CCCN3C[C@H](F)C4)nc(N3CC4(CCc5sc(N)c(C#N)c54)C3)n2)C1` (stereo partly drawn) [Compound 48, 2-amino-1′-[4-(3-hydroxy-3-methyl-azepan-1-yl)-6-[[(2R,8S)-2-fluoro-1,2,3,5,6,7-hexahydropyrrolizin-8-yl]methoxy]-1,3,5-triazin-2-yl]spiro[5,6-dihydrocyclopenta[b]thiophene-4,3′-azetidine]-3-carbonitrile], the IC50 was 10 to 100 nM in experiment [1], 100 to 1000 nM in experiment [2], below 10 nM in experiment [3] and 100 to 1000 nM in experiment [4].
As to `C[C@@]1(O)CCCN(c2nc(OC[C@@]34CCCN3C[C@H](F)C4)nc(N3CC4(C3)SCc3sc(N)c(C#N)c34)n2)C1` [Compound 49, 2-amino-1′-[4-[[(2R,8S)-2-fluoro-1,2,3,5,6,7-hexahydropyrrolizin-8-yl]methoxy]-6-[(3R)-3-hydroxy-3-methyl-1-piperidyl]-1,3,5-triazin-2-yl]spiro[6H-thieno[2,3-c]thiophene-4,3′-azetidine]-3-carbonitrile], the IC50 was below 10 nM in experiment [1], 100 to 1000 nM in experiment [2], below 10 nM in experiment [3] and below 10 nM in experiment [4].
As for `N#Cc1c(N)sc2c1C1(CC2)CN(c2nc(OC[C@@]34CCCN3C[C@H](F)C4)nc(N3CCCCC(O)C3)n2)C1` (stereo partly drawn) [Compound 50, 2-amino-1′-[4-(3-hydroxyazepan-1-yl)-6-[[(2R,8S)-2-fluoro-1,2,3,5,6,7-hexahydropyrrolizin-8-yl]methoxy]-1,3,5-triazin-2-yl]spiro[5,6-dihydrocyclopenta[b]thiophene-4,3′-azetidine]-3-carbonitrile], the half-maximal inhibitory concentration (IC50) lay within 10 to 100 nM in experiment [1], 100 to 1000 nM in experiment [2], 10 to 100 nM in experiment [3] and 100 to 1000 nM in experiment [4].

The values above are taken from patent US12421254B2, “KRAS modulators and uses thereof” (Quanta Therapeutics, Inc., priority 2023, dated 2025).
